In one test the target is Rat whole blood (Rattus norvegicus, UniProt P15384). In kind it is cell-based. As to conditions: IL-17A release, thapsigargin, 24 Hr, at least 2 replicates.
A further test concerns the target T1, human Kv1.3 (Homo sapiens, UniProt P22001).
T1 construct: expressed in transfected cells; host or cells: CHO
Put plainly: cell-based. As to conditions: CHO cells, QPatch whole-cell; read-out: Potency IC50 Kv1.3. A general note: The patch-clamp technique gives a direct electrical read-out from membranes.

Another test concerns the target T2, human Kv1.2 (Homo sapiens, UniProt P16389).
T2 construct: expressed in transfected cells; host or cells: CHO
Put plainly: cell-based. As to conditions: for Selectivity ratio Kv1.2/Kv1.3: ratio of patch clamp IC50 values.

The target in test [1] is T3, human Kv1.3 voltage-gated K+ channel (Homo sapiens, UniProt P22001).
T3 construct: host or cells: CHO-DUKX
Put plainly: Kv1.3 blocker activity in FLIPR thallium assay. Format: cell-based. Summed up:
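CHO-DUKX cells stably expressing Kv1.3 were pre-incubated with compound for 30 min at 37° C in buffer with 0.02% w/v casein. Depolarization used final stimulus buffer with 5 mM K2SO4 and 1 mM Tl2SO4. Thallium-flux fluorescence was read at maximum response at 50 s, 37° C, and IC50 derived.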

A further test has as its target T4, human Kv1.1 (Homo sapiens, UniProt Q09470).
T4 construct: expressed in transfected cells; host or cells: CHO
The experiment in a line: cell-based. As to conditions: for Selectivity ratio Kv1.1/Kv1.3: ratio of patch clamp IC50 values.

Another test addresses T5, human Kv1.6 (Homo sapiens, UniProt P17658).
T5 construct: expressed in transfected cells; host or cells: CHO
The experiment in a line: cell-based. As to conditions: for Selectivity ratio Kv1.6/Kv1.3: ratio of patch clamp IC50 values.

For test [2], the system named is KLH ear inflammation model in rats. Format: in vivo, rat. The conditions noted are these: +/− SD.
Test [3] relates to Human peripheral blood mononuclear cells (PBMCs). Format: cell-based. The conditions noted are these: geometric mean, at least 6 replicates, Example 5b; read-out: anti-CD3 PBMC/IL-2 IC50. As to the method: Human peripheral blood mononuclear cells (PBMCs) were used to assess the effects of Kv1.3 blocker reference compounds on T-cell activation as determined by IL-2 release after stimulation with anti-CD3.
Human PBMCs were obtained from Precision for Medicine (Frederick, MD). Cells from 5 donors were used. Plate-bound anti-CD3 was used to stimulate bulk T cells in the PBMC preparations. Briefly, 96-well plates were coated with anti-CD3 antibody for app. 16 hours at 5° C., using 50 μl of a 1 μg/ml anti-CD3 solution diluted in PBS. Thereafter the plates were washed twice.
Kv1.3 blockers were subsequently diluted in medium (RPMI 1640 with Glutamax-I containing, 10% v/v Fetal Bovine Serum, 1% v/v penicillin-streptomycin Solution) and added in a volume of 50 μl. The compounds indicated in Table 8b were used at concentrations ranging from 0.3 pM to 1000 nM (half log dilutions, starting concentrations varying).
Finally, 50.000 PBMCs in the same medium were added to each well in a volume of 50 μl, giving a final volume of 100 μl per well. The plates were incubated for 20-24 hours in a 37° C./5% CO2 incubator. After centrifugation of the plates, 25 μl supernatant was transferred to IL-2 detection plates (MSD Human IL-2 Tissue Culture Kit, cat #K151AHB-2) and IL-2 was measures as described by the manufacturer (Meso Scale Discovery, Rockville, Maryland, USA).
All values derive from at least 6 replicates.

Where “and” joins values, the source holds several entries; their conditions need not be identical. Equal entries are not always repeated. Where two headings read alike, the source gives them in different places. Where a SMILES comes first, the peptide text is derived from it. Bridges are numbered along the chain shown (N, C = ends). [ ]: non-standard residue; d: D form. Agp = N=C(N)NC[C@H](N)C(=O)O; Nle = CCCC[C@H](N)C(=O)O Where only a bound is given, the exact number is not on record here.

T4 sequence (Q09470 whole entry): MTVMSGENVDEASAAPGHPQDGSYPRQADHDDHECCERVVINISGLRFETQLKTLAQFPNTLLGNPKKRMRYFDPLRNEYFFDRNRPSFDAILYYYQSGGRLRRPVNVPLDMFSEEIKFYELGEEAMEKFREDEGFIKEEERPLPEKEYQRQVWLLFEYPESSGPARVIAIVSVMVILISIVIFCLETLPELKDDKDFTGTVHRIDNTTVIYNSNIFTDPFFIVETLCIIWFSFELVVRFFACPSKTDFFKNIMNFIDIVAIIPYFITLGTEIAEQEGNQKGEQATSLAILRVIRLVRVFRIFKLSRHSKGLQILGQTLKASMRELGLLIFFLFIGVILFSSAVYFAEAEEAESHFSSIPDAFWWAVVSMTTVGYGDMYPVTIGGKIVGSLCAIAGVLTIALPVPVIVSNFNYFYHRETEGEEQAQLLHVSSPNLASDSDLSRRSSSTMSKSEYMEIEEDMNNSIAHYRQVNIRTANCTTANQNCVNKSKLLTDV
T1 sequence (P22001 whole entry): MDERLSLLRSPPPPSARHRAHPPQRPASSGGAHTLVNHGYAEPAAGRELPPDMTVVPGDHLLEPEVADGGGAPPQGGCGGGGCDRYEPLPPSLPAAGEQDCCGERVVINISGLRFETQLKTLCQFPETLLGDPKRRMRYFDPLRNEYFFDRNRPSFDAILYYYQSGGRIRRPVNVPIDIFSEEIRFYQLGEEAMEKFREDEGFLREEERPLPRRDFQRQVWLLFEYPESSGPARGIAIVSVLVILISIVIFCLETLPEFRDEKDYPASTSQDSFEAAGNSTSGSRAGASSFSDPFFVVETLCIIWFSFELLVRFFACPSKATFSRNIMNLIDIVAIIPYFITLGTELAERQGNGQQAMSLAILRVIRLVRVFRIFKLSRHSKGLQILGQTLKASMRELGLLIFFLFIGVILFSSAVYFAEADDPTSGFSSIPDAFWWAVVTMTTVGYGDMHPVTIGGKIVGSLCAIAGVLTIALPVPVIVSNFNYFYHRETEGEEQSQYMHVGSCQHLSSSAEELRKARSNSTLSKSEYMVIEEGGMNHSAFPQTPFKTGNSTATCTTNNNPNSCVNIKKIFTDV
T5 sequence (P17658 whole entry): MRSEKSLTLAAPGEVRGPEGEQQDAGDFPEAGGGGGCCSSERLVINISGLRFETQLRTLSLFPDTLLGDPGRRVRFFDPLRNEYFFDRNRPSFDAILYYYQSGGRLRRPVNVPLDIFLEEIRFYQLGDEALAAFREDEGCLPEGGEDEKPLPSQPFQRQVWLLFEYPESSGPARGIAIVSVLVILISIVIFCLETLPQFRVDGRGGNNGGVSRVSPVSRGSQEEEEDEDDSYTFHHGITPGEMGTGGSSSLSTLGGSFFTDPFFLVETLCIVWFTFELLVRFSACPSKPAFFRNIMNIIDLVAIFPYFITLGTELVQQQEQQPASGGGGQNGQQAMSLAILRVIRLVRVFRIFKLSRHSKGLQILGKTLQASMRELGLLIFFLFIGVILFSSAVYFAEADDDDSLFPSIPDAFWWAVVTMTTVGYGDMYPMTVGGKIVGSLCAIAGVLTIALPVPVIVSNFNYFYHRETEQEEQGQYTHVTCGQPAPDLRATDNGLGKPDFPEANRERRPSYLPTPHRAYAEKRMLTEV
T2 sequence (P16389 whole entry): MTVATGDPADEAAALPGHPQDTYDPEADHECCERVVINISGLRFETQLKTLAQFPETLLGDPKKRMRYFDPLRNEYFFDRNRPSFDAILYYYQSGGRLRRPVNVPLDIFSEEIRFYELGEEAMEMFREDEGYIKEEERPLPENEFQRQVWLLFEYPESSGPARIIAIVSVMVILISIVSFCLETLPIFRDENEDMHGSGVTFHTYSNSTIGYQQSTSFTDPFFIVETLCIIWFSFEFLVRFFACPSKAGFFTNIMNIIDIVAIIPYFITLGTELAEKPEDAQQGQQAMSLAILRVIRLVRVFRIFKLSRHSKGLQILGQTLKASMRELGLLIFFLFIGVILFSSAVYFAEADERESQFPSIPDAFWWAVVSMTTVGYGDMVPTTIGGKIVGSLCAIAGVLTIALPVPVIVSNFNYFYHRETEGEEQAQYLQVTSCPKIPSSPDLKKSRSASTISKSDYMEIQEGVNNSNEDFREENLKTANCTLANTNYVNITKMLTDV
Sequence of Rat whole blood (P15384 whole entry): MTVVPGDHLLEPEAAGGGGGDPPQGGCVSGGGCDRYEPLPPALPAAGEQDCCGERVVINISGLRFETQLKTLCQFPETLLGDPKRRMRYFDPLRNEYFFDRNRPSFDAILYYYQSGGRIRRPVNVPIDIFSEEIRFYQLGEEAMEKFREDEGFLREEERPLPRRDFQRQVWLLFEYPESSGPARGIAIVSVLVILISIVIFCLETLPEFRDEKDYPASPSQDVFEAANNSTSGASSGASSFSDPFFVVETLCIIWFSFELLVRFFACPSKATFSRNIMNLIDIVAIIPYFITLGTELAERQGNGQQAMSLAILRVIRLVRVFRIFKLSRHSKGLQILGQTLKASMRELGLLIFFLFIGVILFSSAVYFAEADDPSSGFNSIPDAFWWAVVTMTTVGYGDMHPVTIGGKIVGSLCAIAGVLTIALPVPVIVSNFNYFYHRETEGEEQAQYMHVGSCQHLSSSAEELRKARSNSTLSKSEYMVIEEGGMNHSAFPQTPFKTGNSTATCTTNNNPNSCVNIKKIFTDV
T3 sequence (P22001 whole entry): as the sequence (P22001 whole entry) above

As for `CCCC[C@H](NC(=O)[C@H](CC(=O)O)NC(=O)[C@H](CCCC)NC(=O)[C@@H](N)CO)C(=O)N[C@@H](CCCNC(=N)N)C(=O)N[C@H]1CSSC[C@@H]2NC(=O)[C@H](CCCCN)NC(=O)CNC(=O)[C@H](Cc3ccccc3)NC(=O)[C@H]([C@@H](C)CC)NC(=O)[C@H](CO)NC(=O)CNC(=O)[C@H]([C@@H](C)CC)NC(=O)[C@H](C)NC(=O)[C@H](CCCCN)NC(=O)[C@H](CC(C)C)NC(=O)[C@@H]3CSSC[C@@H](C(=O)N[C@@H](Cc4ccc(O)cc4)C(=O)N4CCC[C@H]4C(=O)N[C@@H](CCCNC(=N)N)C(N)=O)NC(=O)[C@H](CCCNC(=N)N)NC(=O)[C@H](CSSC[C@H](NC(=O)[C@H](CCC(=O)O)NC(=O)[C@H](C(C)C)NC(=O)[C@H](CO)NC(=O)[C@H](C)NC(=O)[C@H](CO)NC1=O)C(=O)N[C@@H](CCCCN)C(=O)N[C@@H](CCC(N)=O)C(=O)N[C@@H](CCCCN)C(=O)N3)NC(=O)[C@H](CCCCN)NC(=O)[C@H](CCCCN)NC(=O)[C@H](CC(N)=O)NC(=O)[C@H](CCSC)NC2=O` [compound 75] (H-S[Nle]D[Nle]RCSASVECKQKCLKAIGSIFGKCMNKKCRCYPR-NH2; disulfide 6-27, 12-32, 16-34), the results for the IC50 on Rat whole blood and at human Kv1.3 were 0.86 nM and 0.13 nM, respectively.
On to `CCCC[C@H](NC(=O)[C@@H]1CCCN1)C(=O)N[C@@H](CCC(=O)O)C(=O)N[C@@H](CCCC)C(=O)N[C@@H](CCCNC(=N)N)C(=O)N[C@H]1CSSC[C@@H]2NC(=O)[C@H](CCCCN)NC(=O)CNC(=O)[C@H](Cc3ccccc3)NC(=O)[C@H]([C@@H](C)CC)NC(=O)[C@H](CO)NC(=O)CNC(=O)[C@H]([C@@H](C)CC)NC(=O)[C@H](C)NC(=O)[C@H](C)NC(=O)[C@H](CC(C)C)NC(=O)[C@@H]3CSSC[C@@H](C(=O)N[C@@H](Cc4ccc(O)cc4)C(=O)N4CCC[C@H]4C(=O)N[C@@H](CCCNC(=N)N)C(=O)O)NC(=O)[C@H](CCCCN)NC(=O)[C@H](CSSC[C@H](NC(=O)[C@H](CCC(=O)O)NC(=O)[C@H](C(C)C)NC(=O)[C@H](CO)NC(=O)[C@H](C)NC(=O)[C@H](CNC(=N)N)NC1=O)C(=O)N[C@@H](CCCCN)C(=O)N[C@@H](CCC(N)=O)C(=O)N[C@@H](CCCCN)C(=O)N3)NC(=O)[C@H](CCCCN)NC(=O)[C@H](CCCCN)NC(=O)[C@H](CC(N)=O)NC(=O)[C@H](CCCC)NC2=O` [Cpd No. 3] (H-P[Nle]E[Nle]RC[Agp]ASVECKQKCLAAIGSIFGKC[Nle]NKKCKCYPR-OH; disulfide 6-27, 12-32, 16-34), for which the IC50 was 380 nM at human Kv1.2 (CHO cells, QPatch whole-cell, read-out: Potency IC50 Kv1.2); 0.13 nM in test [1]; more than 3000 nM at human Kv1.1 (CHO cells, QPatch whole-cell, read-out: Potency IC50 Kv1.1); more than 3000 nM on human Kv1.6 (CHO cells, QPatch whole-cell, read-out: Potency IC50 Kv1.6); 0.064 nM at human Kv1.3. Also, the “Selectivity ratio Kv1.2/Kv1.3” value at human Kv1.2 amounted to 6000. The “Selectivity ratio Kv1.1/Kv1.3” value on human Kv1.1 was more than 46000. Besides, on human Kv1.6, the “Selectivity ratio Kv1.6/Kv1.3” value is reported as more than 46000.
As to `CC[C@H](C)[C@@H]1NC(=O)[C@H](C)NC(=O)[C@H](CCCCN)NC(=O)[C@H](CC(C)C)NC(=O)[C@@H]2CSSC[C@@H](C(=O)N[C@@H](Cc3ccc(O)cc3)C(=O)N3CCC[C@H]3C(=O)N[C@@H](CCCNC(=N)N)C(=O)O)NC(=O)[C@H](CCCCN)NC(=O)[C@@H]3CSSC[C@H](NC(=O)[C@H](CCC(=O)O)NC(=O)[C@H](C(C)C)NC(=O)[C@H](CO)NC(=O)[C@H](C)NC(=O)[C@H](CO)NC(=O)[C@@H](NC(=O)[C@H](CCCNC(=N)N)NC(=O)[C@H](CCSC)NC(=O)[C@H](CC(=O)O)NC(=O)[C@H](CCSC)NC(=O)[C@@H](N)CC(N)=O)CSSC[C@H](NC(=O)[C@H](CCCCN)NC(=O)CNC(=O)[C@H](Cc4ccccc4)NC(=O)[C@H]([C@@H](C)CC)NC(=O)[C@H](CO)NC(=O)CNC1=O)C(=O)N[C@@H](CCSC)C(=O)N[C@@H](CC(N)=O)C(=O)N[C@@H](CCCCN)C(=O)N[C@@H](CCCCN)C(=O)N3)C(=O)N[C@@H](CCCCN)C(=O)N[C@@H](CCC(N)=O)C(=O)N[C@@H](CCCCN)C(=O)N2` [compound 17] (H-NMDMRCSASVECKQKCLKAIGSIFGKCMNKKCKCYPR-OH; disulfide 6-27, 12-32, 16-34), the “Selectivity ratio Kv1.2/Kv1.3” value on human Kv1.2 worked out at 1540. Besides, the “% inhibition of ear thickness (AUC of Δ ear thickness 0-48 hours)” value in test [2] (50 nmol/kg SC 24 hrs prior to KLH ear challenge) is 37.3 (+/−13.8) %; in test [2] (70 nmol/kg SC 24 hrs prior to KLH ear challenge), 38.8 (+/−9.7) % and 25.0 (+/−12.5) %. The “Selectivity ratio Kv1.1/Kv1.3” value at human Kv1.1 is recorded as more than 11300. Also, the “Selectivity ratio Kv1.6/Kv1.3” value on human Kv1.6 is listed as more than 11300. The results for the IC50 (in test [3]; on Rat whole blood) were 0.06 nM and 1 nM, respectively.
Regarding `CC[C@H](C)[C@@H]1NC(=O)[C@H](C)NC(=O)[C@H](CCCCN)NC(=O)[C@H](CC(C)C)NC(=O)[C@@H]2CSSC[C@@H](C(=O)N[C@@H](Cc3ccc(O)cc3)C(=O)N3CCC[C@H]3C(=O)N[C@@H](CCCNC(=N)N)C(N)=O)NC(=O)[C@H](CCCCN)NC(=O)[C@@H]3CSSC[C@H](NC(=O)[C@H](CCC(=O)O)NC(=O)[C@H](C(C)C)NC(=O)[C@H](CO)NC(=O)[C@H](C)NC(=O)[C@H](CCCCN)NC(=O)[C@@H](NC(=O)[C@H](CCCNC(=N)N)NC(=O)[C@H](CCSC)NC(=O)[C@H](CC(=O)O)NC(=O)[C@H](CCSC)NC(=O)[C@@H](N)CC(N)=O)CSSC[C@H](NC(=O)[C@H](CCCCN)NC(=O)CNC(=O)[C@H](Cc4ccccc4)NC(=O)[C@H]([C@@H](C)CC)NC(=O)[C@H](CO)NC(=O)CNC1=O)C(=O)N[C@@H](CCSC)C(=O)N[C@@H](CC(N)=O)C(=O)N[C@@H](CCCCN)C(=O)N[C@@H](CCCCN)C(=O)N3)C(=O)N[C@@H](CCCCN)C(=O)N[C@@H](CCC(N)=O)C(=O)N[C@@H](CCCCN)C(=O)N2` [compound 29] (H-NMDMRCKASVECKQKCLKAIGSIFGKCMNKKCKCYPR-NH2; disulfide 6-27, 12-32, 16-34), the “Selectivity ratio Kv1.2/Kv1.3” value at human Kv1.2 turned out to be 761. Moreover, at human Kv1.1, the “Selectivity ratio Kv1.1/Kv1.3” value is on record as more than 34200. Besides, the “Selectivity ratio Kv1.6/Kv1.3” value at human Kv1.6 came out at 4144. At human Kv1.3, the IC50 was determined as 0.09 nM.

For the origin of these results see patent US20240182531A1, “KV1.3 Blockers” (priority 2021, published 2024).
